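Here, GI50 denotes the concentration required for 50% inhibition of growth. TGI: concentration producing complete growth inhibition.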
Tests used:
Test in all cases: growth of human tumour cells (NCI), 384-well format
HS 578T breast = system: HS 578T breast
RPMI-8226 leukemia = system: RPMI-8226 leukemia
IGROV1 ovarian = system: IGROV1 ovarian
UACC-62 melanoma = system: UACC-62 melanoma
U251 glioblastoma = system: U251 glioblastoma
MDA-MB-231 breast = system: MDA-MB-231 breast
HOP-62 NSCLC = system: HOP-62 NSCLC
CAKI-1 renal = system: CAKI-1 renal
LOX IMVI melanoma = system: LOX IMVI melanoma
OVCAR-5 ovarian = system: OVCAR-5 ovarian
SNB-19 CNS = system: SNB-19 CNS
SK-OV-3 ovarian = system: SK-OV-3 ovarian
NCI-H23 lung = system: NCI-H23 lung
NCI-H522 lung = system: NCI-H522 lung
TK-10 renal = system: TK-10 renal
HCC-2998 colon = system: HCC-2998 colon
A498 renal = system: A498 renal
HL-60(TB) leukemia = system: HL-60(TB) leukemia
OVCAR-3 ovarian = system: OVCAR-3 ovarian
OVCAR-4 ovarian = system: OVCAR-4 ovarian
SF-295 CNS = system: SF-295 CNS
UO-31 renal = system: UO-31 renal
CCRF-CEM leukemia = system: CCRF-CEM leukemia
SK-MEL-5 melanoma = system: SK-MEL-5 melanoma
SF-539 CNS = system: SF-539 CNS
SNB-75 CNS = system: SNB-75 CNS
NCI-H226 lung = system: NCI-H226 lung
MALME-3M melanoma = system: MALME-3M melanoma
MOLT-4 leukemia = system: MOLT-4 leukemia
NCI-H322M lung = system: NCI-H322M lung
A549 NSCLC = system: A549 NSCLC
COLO 205 colon = system: COLO 205 colon
SK-MEL-28 melanoma = system: SK-MEL-28 melanoma

CN(Cc1cnc2nc(N)nc(N)c2n1)c1ccc(C(=O)N[C@@H](CCC(=O)O)C(=O)O)cc1
GI50 (HS 578T breast): < 0.0151 µM
TGI (HS 578T breast): 0.0316 µM
GI50 (RPMI-8226 leukemia): 0.0173 µM
TGI (RPMI-8226 leukemia): 0.0421 µM
GI50 (IGROV1 ovarian): 0.0286 µM
GI50 (UACC-62 melanoma): 0.0189 µM
GI50 (U251 glioblastoma): 0.0317 µM
GI50 (MDA-MB-231 breast): 0.263 µM
TGI (MDA-MB-231 breast): 0.68 µM
GI50 (HOP-62 NSCLC): 0.0375 µM
TGI (HOP-62 NSCLC): 0.123 µM
GI50 (CAKI-1 renal): 0.0263 µM
TGI (CAKI-1 renal): 0.0738 µM
TGI (LOX IMVI melanoma): 0.014 µM
TGI (OVCAR-5 ovarian): < 0.0154 µM
GI50 (SNB-19 CNS): < 0.0197 µM
GI50 (SK-OV-3 ovarian): 1.45 µM
GI50 (NCI-H23 lung): 0.0304 µM
TGI (NCI-H23 lung): 0.308 µM
GI50 (NCI-H522 lung): 0.032 µM
TGI (NCI-H522 lung): 0.543 µM
GI50 (TK-10 renal): 0.0236 µM
TGI (TK-10 renal): 0.0523 µM
GI50 (HCC-2998 colon): 0.0391 µM
GI50 (A498 renal): < 0.0188 µM
TGI (A498 renal): 0.232 µM
TGI (HL-60(TB) leukemia): < 0.0142 µM
GI50 (OVCAR-3 ovarian): < 0.0148 µM
TGI (OVCAR-3 ovarian): 0.0276 µM
TGI (OVCAR-4 ovarian): 0.0665 µM
GI50 (SF-295 CNS): < 0.0135 µM
TGI (SF-295 CNS): < 0.0209 µM
GI50 (UO-31 renal): 0.0295 µM
TGI (UO-31 renal): 9.76 µM
TGI (CCRF-CEM leukemia): < 0.0113 µM
GI50 (SK-MEL-5 melanoma): 0.13 µM
TGI (SK-MEL-5 melanoma): 87.3 µM
TGI (SF-539 CNS): 13.6 µM
GI50 (SNB-75 CNS): < 0.0129 µM
TGI (SNB-75 CNS): < 0.0283 µM
GI50 (NCI-H226 lung): 0.0289 µM
GI50 (MALME-3M melanoma): < 0.0153 µM
TGI (MOLT-4 leukemia): 0.0181 µM
GI50 (NCI-H322M lung): < 0.0126 µM
TGI (NCI-H322M lung): 0.0226 µM
TGI (A549 NSCLC): 0.0178 µM
GI50 (COLO 205 colon): 0.0513 µM
TGI (COLO 205 colon): 95.9 µM
GI50 (SK-MEL-28 melanoma): 0.0277 µM
TGI (SK-MEL-28 melanoma): 0.0607 µM

From PubChem BioAssay (NCI)
